The values that follow come from ChEMBL document CHEMBL2331167, “Inhibitory effect of novel somatostatin peptide analogues on human cancer cell growth based on the selective inhibition of DNA polymerase β” (Bioorg Med Chem, 2013).

pIC50: −log10 of the molar value. Activity calls are given as the source filed them. The rule behind the calls is not given here.

Test [1] has as its system HCT-116. Kind of test: Cytotoxicity against p53 -/- human HCT116 cells assessed as growth inhibition at 200 uM incubated for 24 hrs by WST-1 assay. It counts as functional, cell-based. (In general: Tetrazolium assays rely on reduction of a dye to a coloured formazan, in cell work by metabolically active cells.)
Test [2] deals with HCT-116. Kind of test: Induction of apoptosis in p53 +/+ human HCT116 cells assessed as apoptotic cells at 13.2 uM incubated for 24 hrs by TUNEL analysis relative to p53 -/- human HCT116 cells. It counts as functional.
A further test has as its target T1, DNA polymerase iota (Homo sapiens, UniProt Q9UNA4).
T1 sequence (Q9UNA4 whole entry): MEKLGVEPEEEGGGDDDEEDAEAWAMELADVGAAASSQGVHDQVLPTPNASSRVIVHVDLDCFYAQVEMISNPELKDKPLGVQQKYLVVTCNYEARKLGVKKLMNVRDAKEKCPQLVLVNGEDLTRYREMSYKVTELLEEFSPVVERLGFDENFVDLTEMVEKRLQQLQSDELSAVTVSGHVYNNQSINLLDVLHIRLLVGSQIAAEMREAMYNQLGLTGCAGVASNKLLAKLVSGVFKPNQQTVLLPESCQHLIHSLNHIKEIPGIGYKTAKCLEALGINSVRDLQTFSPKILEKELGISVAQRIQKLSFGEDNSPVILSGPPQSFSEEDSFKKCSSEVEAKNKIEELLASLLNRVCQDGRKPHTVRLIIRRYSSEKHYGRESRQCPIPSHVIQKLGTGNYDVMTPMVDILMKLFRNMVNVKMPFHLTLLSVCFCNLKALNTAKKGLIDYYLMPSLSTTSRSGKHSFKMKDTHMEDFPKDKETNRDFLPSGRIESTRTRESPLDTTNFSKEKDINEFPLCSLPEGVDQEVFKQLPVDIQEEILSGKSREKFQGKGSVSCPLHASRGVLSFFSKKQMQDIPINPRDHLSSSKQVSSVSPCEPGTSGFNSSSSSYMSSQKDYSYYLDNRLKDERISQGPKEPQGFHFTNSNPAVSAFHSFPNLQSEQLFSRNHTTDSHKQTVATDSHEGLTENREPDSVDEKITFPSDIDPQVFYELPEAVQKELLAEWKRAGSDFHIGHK
The experiment in a line: Inhibition of human DNA polymerase iota using poly(dA)/oligo(dT)18 (A/T, 2/1)/dTTP DNA template-primer substrate measured at 37 degC for 60 mins.

Test [3] relates to HCT-116. The experiment in a line: Induction of apoptosis in p53 -/- human HCT116 cells assessed as DNA fragmentation at 13.7 uM incubated for 24 hrs by agarose gel electrophoresis. The test is classed as functional, cell-based.
The test system of test [4] is HCT-116. Kind of test: Cytotoxicity against p53 +/+ human HCT116 cells assessed as growth inhibition at 200 uM incubated for 24 hrs by WST-1 assay. It counts as functional, cell-based.
Test [5] concerns HCT-116. The experiment in a line: Cytotoxicity against p53 +/+ human HCT116 cells assessed as growth inhibition incubated for 24 hrs by WST-1 assay. It counts as functional. Particulars: HCT-116, 24 h, read-out: LD50 (the source's name).
Test [6] concerns the target DNA nucleotidylexotransferase (Bos taurus, UniProt P06526). Kind of test: Inhibition of calf TdT polymerase measured at 37 degC for 60 mins.
In test [7] the test system is HCT-116. The experiment in a line: Cytotoxicity against p53 -/- human HCT116 cells assessed as growth inhibition incubated for 24 hrs by WST-1 assay. The test is classed as functional. The following applies: HCT-116, 24 h, read-out: LD50 (the source's name).
The target of the next test is DNA polymerase beta (Rattus norvegicus, UniProt P06766). Kind of test: Inhibition of rat DNA polymerase beta using poly(dA)/oligo(dT)18 (A/T, 2/1)/dTTP DNA template-primer substrate measured at 37 degC for 60 mins.
The next test addresses T2, DNA polymerase lambda (Homo sapiens, UniProt Q9UGP5).
T2 sequence (Q9UGP5 whole entry): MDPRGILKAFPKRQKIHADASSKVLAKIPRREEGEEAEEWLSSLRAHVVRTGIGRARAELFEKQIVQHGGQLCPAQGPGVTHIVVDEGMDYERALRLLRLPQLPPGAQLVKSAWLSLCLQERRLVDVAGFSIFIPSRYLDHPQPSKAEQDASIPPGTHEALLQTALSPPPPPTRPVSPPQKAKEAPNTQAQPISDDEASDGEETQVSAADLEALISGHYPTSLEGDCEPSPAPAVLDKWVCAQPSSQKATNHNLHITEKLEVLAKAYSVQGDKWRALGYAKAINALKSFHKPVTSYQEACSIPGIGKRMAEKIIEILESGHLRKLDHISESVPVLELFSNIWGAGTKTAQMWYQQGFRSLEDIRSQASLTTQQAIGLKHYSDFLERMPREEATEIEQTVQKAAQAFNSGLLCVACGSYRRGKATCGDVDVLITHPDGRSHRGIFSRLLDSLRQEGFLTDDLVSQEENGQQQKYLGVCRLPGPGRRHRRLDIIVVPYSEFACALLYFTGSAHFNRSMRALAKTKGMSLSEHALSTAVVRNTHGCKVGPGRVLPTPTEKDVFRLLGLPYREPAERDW
The experiment in a line: Inhibition of human DNA polymerase lambda using poly(dA)/oligo(dT)18 (A/T, 2/1)/dTTP DNA template-primer substrate measured at 37 degC for 60 mins.

Chain of DNA nucleotidylexotransferase (P06526 whole entry): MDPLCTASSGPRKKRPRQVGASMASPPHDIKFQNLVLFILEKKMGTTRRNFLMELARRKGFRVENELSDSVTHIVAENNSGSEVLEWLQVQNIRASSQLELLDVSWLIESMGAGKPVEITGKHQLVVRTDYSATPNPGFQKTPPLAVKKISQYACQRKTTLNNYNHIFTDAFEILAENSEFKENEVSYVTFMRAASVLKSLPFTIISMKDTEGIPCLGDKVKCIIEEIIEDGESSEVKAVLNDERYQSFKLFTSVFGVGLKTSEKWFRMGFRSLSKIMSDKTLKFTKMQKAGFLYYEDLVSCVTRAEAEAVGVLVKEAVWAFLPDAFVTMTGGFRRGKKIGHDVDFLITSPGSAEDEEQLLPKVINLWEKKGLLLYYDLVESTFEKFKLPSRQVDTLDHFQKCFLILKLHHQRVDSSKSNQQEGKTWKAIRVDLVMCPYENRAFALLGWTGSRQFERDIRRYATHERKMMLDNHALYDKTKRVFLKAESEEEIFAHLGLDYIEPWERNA

As for `CC[C@H](C)[C@H](NC(=O)[C@H](Cc1ccc(O)cc1)NC(=O)OC(C)(C)C)C(=O)Nc1cccc2ccccc12`, the “growth inhibition (GI)” value in the test on HCT-116 [1] and in the test on HCT-116 [4] was “Active” each time. The “fold change (FC)” value in the test with HCT-116 [2] was 3. For the same molecule, the pIC50 against DNA polymerase iota was under 3.70; in [6], under 3.70; on DNA polymerase beta, 4.94; at DNA polymerase lambda, under 3.70. The outcome with HCT-116 [3] was Active. For the same molecule, the CC50 stood at 13.2 µM in the test with HCT-116 [5] and 13.7 µM in the test with HCT-116 [7].

One may read the pIC50 as the IC50 on a negative log10 scale, so that one unit is a factor of ten. Higher therefore signals a low IC50.
